Assay results: patent US9345789B2, “Specific inhibitors and active site probes for legumain” (The Board of Trustees of the Leland Stanford Junior …, priority 2009, dated 2016)
Where “and” joins values, the source holds several entries; their conditions need not be identical. Equal values may be shown once. Read-outs that look alike come from different tables or passages of the source.

Experiments:
cathepsin L = cathepsin L (Homo sapiens (Human), UniProt P07711); assay: Inhibition of cathepsin L, fluorogenic substrate Cbz-Phe-Arg-AMC
cathepsin L, sequence (P07711 114-333, species assumed): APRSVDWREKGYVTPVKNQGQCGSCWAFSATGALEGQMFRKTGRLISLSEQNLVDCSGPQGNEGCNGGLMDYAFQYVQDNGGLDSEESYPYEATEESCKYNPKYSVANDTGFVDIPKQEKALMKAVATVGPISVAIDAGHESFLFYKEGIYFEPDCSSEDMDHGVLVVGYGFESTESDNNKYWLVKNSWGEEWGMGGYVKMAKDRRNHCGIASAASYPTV
Experimental: (§5) Determination of IC50 against cysteine proteases and second order rate constants (kobs1[I]) for legumain Activity of legumain was measured with the fluorogenic substrate, Cbz-Ala-Ala-Asn-AMC (Anaspec), cathepsin B and cathepsin L was measured with Cbz-Phe-Arg-AMC (Bachem), and caspase-3 was measured with Caspase-3 Substrate VII (Calbiochem). […] The increase in fluorescence was continuously monitored every 30 see for 2.5 hrs with a Spectramax M5 fluorescent plate reader (Molecular Devices), and inhibition curves were recorded. […] ICso values with known broad-spectrum cathepsin inhibitor (JPM-OEt) and caspase-3 inhibitor (Z-DEVD-FMK) were also measured for comparison. All measurements were performed in triplicate and the average values were reported.

cathepsin B = cathepsin B (Homo sapiens (Human), UniProt P07858); assay: Inhibition of cathepsin B, fluorogenic substrate Cbz-Phe-Arg-AMC
Experimental: as §5

caspase-3 = caspase-3 (Homo sapiens (Human), UniProt P42574); assay: Inhibition of caspase-3, Caspase-3 Substrate VII; conditions: read-out: Caspase-3 IC50; at 30 min
caspase-3, sequence (P42574 29-175, species assumed): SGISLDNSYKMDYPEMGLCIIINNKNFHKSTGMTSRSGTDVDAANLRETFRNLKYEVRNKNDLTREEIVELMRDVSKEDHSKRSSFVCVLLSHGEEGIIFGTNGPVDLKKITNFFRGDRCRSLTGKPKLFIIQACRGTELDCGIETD
caspase-3, sequence (P42574 176-277, species assumed): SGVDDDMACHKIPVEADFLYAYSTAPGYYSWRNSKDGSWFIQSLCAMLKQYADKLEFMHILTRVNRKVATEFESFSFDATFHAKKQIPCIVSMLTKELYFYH
Experimental: as §5

recombinant legumain = recombinant legumain (Homo sapiens (Human), UniProt Q99538); assay: Inhibition of recombinant legumain, fluorogenic substrate Cbz-Ala-Ala-Asn-AMC; format: biochemical; conditions: for IC50: at 60 min
recombinant legumain, sequence (Q99538 18-433, species assumed): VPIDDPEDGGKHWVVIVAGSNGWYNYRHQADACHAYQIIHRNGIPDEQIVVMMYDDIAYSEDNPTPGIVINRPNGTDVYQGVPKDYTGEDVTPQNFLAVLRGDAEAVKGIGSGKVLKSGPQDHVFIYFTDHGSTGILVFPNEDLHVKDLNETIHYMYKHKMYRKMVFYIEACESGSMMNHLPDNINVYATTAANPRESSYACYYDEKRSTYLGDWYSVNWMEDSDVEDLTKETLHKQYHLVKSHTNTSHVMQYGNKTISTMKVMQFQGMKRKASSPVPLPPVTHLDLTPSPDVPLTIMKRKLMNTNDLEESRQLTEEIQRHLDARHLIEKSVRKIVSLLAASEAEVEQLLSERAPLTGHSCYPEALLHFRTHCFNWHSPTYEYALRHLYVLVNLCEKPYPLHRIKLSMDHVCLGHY
Experimental: (§1) Assay buffers consist of 20 mM citric acid, 60 mM disodium hydrogen orthophosphate, 1 mM EDTA, 0.1% CHAPS, 4 mM DTT, pH 5.8 for legumain, 50 mM dihydrogen sodium orthophosphate, 1 mM EDTA, 5 mM DTT, pH 6.25 for cathepsin B and cathepsin Land 100 mM Tris, 0.1% CHAPS, 10% sucrose, 10 mM DTT, pH 7.4 for caspase-3.
Second-order inhibition rate constants were determined by following the previously described method in the literature (6). The pseudo-first-order rate constants (kobs) were obtained from plots of In vJ Vo versus time where Vo is the rate of hydrolysis of fluorogenic substrate and Vt is the rate of hydrolysis of substrate in the presence of the inhibitor. The second-order inhibition rate constants were calculated using the following equation. Second order rate constant=(kobs1[I])(1+[S]/Km)

[1] = tested on: caspase 3, cathepsin B or cathepsin L; assay: Selectivity: inhibition of enzymes other than legumain; format: biochemical; conditions: for inhibitory effect against other enzymes: even at millimolar concentrations
Experimental: Disclosed below are activity based probes, i.e., they only label active enzyme. The probes are specific for legumain, and may be used to inhibit or inhibit and label active enzyme in situ. […] It may be said, for example, the activity towards legumain will be on the order of at least 3 times greater for legumain than caspase 3, cathepsin B or cathepsin L, preferably at least 10 times greater, and even 100 times greater.
as §1

legumain [2] = biological target: T1, legumain (Mus musculus (Mouse), UniProt O89017); assay: Labeling of active legumain in intact NIH-3T3 fibroblasts (SDS-PAGE, Cy5 scan); format: cell-based
Excerpt: (§2) We treated intact NIH-3T3 and RAW 264.7 cells with LP-1 and LP-O respectively and monitored protein labeling using SDS-PAGE followed by scanning of the gel to detect the Cy5 fluorescence (FIG. 2). […] The identity of these off targets as cathepsins was confirmed by pre-treatment of cells with the broad-spectrum cathepsin inhibitor JPM-OEt (21) and further verified by immunoprecipitation (FIG. 16). Although some degree of cross reactivity of AOMK probes towards cathepsins has been reported (15), attempts to inhibit cathepsins with various aza-epoxide inhibitors have been unsuccessful (22). Therefore, the labeling of cathepsins by LP-I was particularly surprising. […] Furthermore, when cells were pre-treated with legumain inhibitors we observed more intense cathepsin labeling. This could be explained by the fact that cathepsins are known to be substrates for legumain (3, 23), thus legumain inhibition could result in increased levels of cathepsins and therefore increased non-specific labeling by the legumain probes.
(§3) RAW 264.7 cells (250,000 cells/well) and NIH-3T3 cells (200,000 cells/well) were seeded in a 24 well plate 24-30 hrs prior to labeling. Cells were pre-treated with appropriate inhibitors for 1.5 hrs and labeled by addition of each probe for 1 hrs; the final DMSO concentration was maintained less than 0.2%. Cells were washed with PBS buffer and lysed by addition of sample buffer. Crude lysates were collected and separated by 12.5% SDS-PAGE. Labeled proteins were analyzed by scanning the gel with a Typhoon flatbed laser scanner (ex. 633 nM/em. 680 nM). For lysates labeling, cytosolic lysates of RAW 264.7 cells were prepared as previously described (29). Lysates were diluted to 1 mg/ml in 50 mM citrate phosphate buffer (pH 4.5), 0.1% CHAPS, 5 mM DTT and subjected to direct labeling. 25˜L of lysates samples were pre-treated with inhibitors for 30 min and labeled with probes for another 30 min. The labeled samples were separated by 12.5% SDS-PAGE and analyzed by scanning the gel with a Typhoon flatbed scanner.
Target sequence in this assay (O89017 18-325): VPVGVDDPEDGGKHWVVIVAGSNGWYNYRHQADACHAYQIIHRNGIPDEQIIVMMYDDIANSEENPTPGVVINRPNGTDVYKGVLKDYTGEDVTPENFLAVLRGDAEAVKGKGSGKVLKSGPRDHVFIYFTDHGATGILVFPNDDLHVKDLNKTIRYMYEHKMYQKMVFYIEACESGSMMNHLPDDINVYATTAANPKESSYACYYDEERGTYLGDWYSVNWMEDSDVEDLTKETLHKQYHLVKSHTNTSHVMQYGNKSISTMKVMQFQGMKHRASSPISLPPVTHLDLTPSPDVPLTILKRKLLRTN

cathepsins [3] = assay: Off-target labeling of cathepsins in intact RAW 264.7 macrophages; format: cell-based; conditions: for cross reactivity towards lysosomal cathepsins: intact RAW 264.7 macrophages; for labeling of cathepsins: high concentrations
Experimental: Immunoprecipitation of cathepsins in intact raw 264.7 cells. […] High concentration of LP-1 was used to bring out all the off-target labeling in intact cells.
RAW 264.7 macrophages (600,000 cells/well) were seeded in a 6 well plate 24 hrs prior to labeling. […] High concentration of LP-1 was used to bring out all the off-target labeling in intact cells. Cells were washed with PBS buffer and lysed by addition of citrate-phosphate lysis buffer (50 mM citrate-phosphate, 1% CHAPS, 0.5% Triton, 5 mM DTT, pH 4.5). 20 μL of crude lysates were diluted to […] in RIPA buffer (phosphate-buffered saline, 0.5% NP-40, 1 mM EDTA, pH 7.4). Anti-mouse cathepsin B (E Weber Halle), anti-mouse cathepsin L (R&D Systems), anti-goat cathepsin S (Abchem) and anti-human cathepsin S (R&D Systems) were added and mixed for 15 mM at 0° C. 40 μL of Protein A/G Plus Agarose beads (Santa Cruz Biotechnology) were added and mixed overnight at 4° C. Samples were spun down and supernatant and beads were separated. Beads were washed with RIPA buffer and boiled after addition of sample buffer 2× (20% glycerol, 100 mM Tris HCl, pH 6.8, 6% SDS, and 10% b-mercaptoethanol). Acetone was added to the supernatant and kept at −80° C. for 2 h. Precipitated proteins were collected by centrifugation in the cold for 30 min, dried, and dissolved by boiling in sample buffer. Samples without immunoprecipitation (input), pellets (P) and supernatant (S) were separated on a 12.5% SDS-PAGE and visualized by scanning of the gel with a Typhoon flatbed laser scanner (excitation/emission 633/680 nm).
as §2, with “This could be explained by the fact that cathepsins are known to be substrates for legumain (3, 23), thus legumain inhibition could result in increased levels of cathepsins and therefore increased non-specific labeling by the legumain probes.” left out
RAW 264.7 cells (250,000 cells/well) and NIH-3T3 cells (200,000 cells/well) were seeded in a 24 well plate 24-30 hrs prior to labeling. […] Labeled proteins were analyzed by scanning the gel with a Typhoon flatbed laser scanner (ex. 633 nM/em. 680 nM). […] The labeled samples were separated by 12.5% SDS-PAGE and analyzed by scanning the gel with a Typhoon flatbed scanner.

legumain [4] = biological target: T1, legumain; assay: Ex vivo imaging of organs and SDS-PAGE analysis of organ lysates; format: in vivo, mice
Experimental: (§4) In vivo/ex vivo imaging and SDS-PAGE analysis of organ lysates was conducted as follows: Tumor bearing mice were prepared by following the previously described method (24). C2C12/Hras1 or MDA-MB 231 MFP cells ([…]) were injected subcutaneously on 4-8 week old male BALB/c nude mice. 14 days after transplantation, each probe (25 nmol in 100˜L of sterile PBS) was injected via the tail vein into tumor-bearing mice. Mice were imaged at various time points after injection using the IVIS 200 imaging system equipped with a Cy5.5 filter. Relative fluorescence of equal-sized areas of tumor and background were measured using Living Image software (Caliper life science). Upon finishing the last time point of imaging, mice were anesthetized and sacrificed by cervical dislocation. Tumors, livers, kidneys and spleens were collected and imaged ex vivo by using the FMT 2500 with a Cy5 filter. After ex vivo imaging, organs were lysed by a dounce homogenizer in muscle lysis buffer (1% Triton X-100, 0.1% SDS, 0.5% sodium deoxycholate, 0.2% sodium azide in PBS, pH 7.2). Total protein extracts (100˜g each) were separated by SDS-PAGE and visualized by scanning the gel with a Typhoon flatbed laser scanner.
Target sequence in this assay (O89017 18-435): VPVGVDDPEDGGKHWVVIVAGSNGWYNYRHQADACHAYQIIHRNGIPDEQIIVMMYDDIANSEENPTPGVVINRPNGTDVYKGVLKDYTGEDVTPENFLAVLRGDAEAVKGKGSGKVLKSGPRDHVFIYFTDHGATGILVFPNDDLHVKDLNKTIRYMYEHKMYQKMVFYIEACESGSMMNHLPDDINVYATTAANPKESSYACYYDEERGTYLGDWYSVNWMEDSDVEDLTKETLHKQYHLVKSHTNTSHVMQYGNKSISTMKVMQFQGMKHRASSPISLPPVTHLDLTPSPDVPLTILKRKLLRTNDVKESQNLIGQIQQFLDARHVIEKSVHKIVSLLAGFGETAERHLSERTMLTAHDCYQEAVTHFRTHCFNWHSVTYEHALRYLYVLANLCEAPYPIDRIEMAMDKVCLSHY

cathepsins [5] = assay: Competitive inhibition of cathepsins in RAW cell lysates, labeled by 125I-DCG04; format: biochemical; conditions: competition with 125I-DCG04
Excerpt: To test this hypothesis, we labeled RAW cell lysates with LP-1 and tLP-1 (FIG. 9).

legumain [6] = biological target: T1, legumain; assay: Direct labeling of legumain in RAW cell lysates; format: biochemical
Experimental: as §3
Target sequence in this assay (O89017 18-435): as above
We believe that this cross-reactivity results from increased lysosomal uptake and is not the result of a loss of specificity as the result of addition of the tat peptide. […] We also performed a competition assay by pre-treating RAW lysates with each probe and labeling with the general cathepsin probe, I^125_DCG04 (25).

legumain [7] = biological target: T1, legumain; assay: In vivo fluorescence imaging of mice bearing C2C12/ras xenograft tumors; conditions: IV tail vein, 25 nmol probe
Experimental: In order to examine in vivo properties of LP-1 and monitor active legumain levels non-invasively, we performed imaging experiments using a simple tumor xenograft model (C2C 1 2/Hras 1)(24). […] Mice were injected with the probes via tail vein and fluorescent images were collected over the course of 5 hrs. […] Furthermore, the specific legumain signal was reduced to background levels after 120 min. This is in contrast to the previously reported cathepsin probes which only provide contrast after 8-12 hours and signals are retained beyond 48 hours.
as §4
Target sequence in this assay (O89017 18-435): as above

[8] = read-out: Cathepsin L IC50, at 30 min

## CCOC(=O)[C@H]1O[C@@H]1C(=O)N[C@@H](CC(C)C)C(=O)NCCc1ccc(O)cc1 [JPM-OEt, reference compound]
Cathepsin L
  IC50: 2.98 µM
Cathepsin B
  IC50: 0.78 µM

## CC(=O)N1CCC[C@H]1C(=O)N[C@@H](CC(=O)O)C(=O)COC(=O)c1c(C)cccc1C [LI-0, reference compound]
Cathepsin L; [8]
  IC50: > 1000 µM
Cathepsin B; read-out: Cathepsin B IC50, at 30 min
  IC50: > 1000 µM
caspase-3
  IC50: 2.8 µM
Recombinant legumain
  Legumain kobs/[I] (second-order rate constant): 1586 M⁻¹ s⁻¹
  IC50: 0.704 µM
Recombinant legumain; listed as LI-O
  Legumain kobs/[I] (second-order rate constant): 1585 M⁻¹ s⁻¹

## CCOC(=O)[C@@H]1O[C@H]1C(=O)N(CC(N)=O)NC(=O)C1CCCN1C(C)=O (stereo partly drawn) [LI-1]
Cathepsin L; [8]
  IC50: 220 µM
caspase-3
  IC50: 890 µM
Recombinant legumain
  Legumain kobs/[I] (second-order rate constant): 72350 M⁻¹ s⁻¹ and 72352 M⁻¹ s⁻¹
  IC50: 0.0115 µM
Recombinant legumain; FIG. 18
  potency and rate of legumain inhibition, comparison of inhibitors: greater potency and rate than either Li-2 or LI-0
[1]
  inhibitory effect against other enzymes: no inhibitory effect

## CCOC(=O)/C=C/C(=O)N(CC(N)=O)NC(=O)[C@@H]1CCCN1C(C)=O [LI-2]
[1]; FIG. 18
  selectivity for legumain: most selective for legumain
[1]
  inhibitory effect against other enzymes: no inhibitory effect

## CC[N+]1=C(/C=C/C=C/C=C2/N(CCCCCC(=O)NCCCCCC(=O)N3CCC[C@H]3C(=O)N[C@@H](CC(=O)O)C(=O)COC(=O)c3c(C)cccc3C)c3ccc(S(=O)(=O)O)cc3C2(C)C)C(C)(C)c2cc(S(=O)(=O)O)ccc21 [LP-0, reference compound]
Legumain [2]
  labeling of active legumain: selectively labeled active legumain
Cathepsins [3]
  cross reactivity towards lysosomal cathepsins: some degree of cross reactivity towards lysosomal cathepsins

## CCOC(=O)C1OC1C(=O)N(CC(N)=O)NC(=O)C1CCCN1C(=O)CCCCCNC(=O)CCCCCN1C(=CC=CC=CC2=[N+](CC)c3ccc(S(=O)(=O)O)cc3C2(C)C)C(C)(C)c2cc(S(=O)(=O)O)ccc21 (stereo not drawn) [LP-1]
Legumain [4]; ex vivo organs and SDS-PAGE of lysates
  legumain labeling in tumors, organ distribution and cathepsin cross reactivity: the most legumain labeling in tumors as well as the highest levels of legumain-specific fluorescent signal
Legumain [4]; organ extracts, SDS-PAGE
  selectivity of legumain labeling in vivo: remarkably selective toward legumain in vivo and showed virtually no off-target labeling
Legumain [2]
  labeling of active legumain: selectively labeled active legumain
Legumain [2]; listed as LP-I
  labeling of active legumain: labeled active legumain more efficiently than LP-0 at low probe concentrations
Cathepsins [5]
  inhibition of cathepsins: equally poor inhibitors of the cathepsins
Cathepsins [3]
  labeling of cathepsins: labeled cathepsins only at high concentrations or when legumain activity is suppressed
  cross reactivity towards lysosomal cathepsins: some degree of cross reactivity towards lysosomal cathepsins
Legumain [6]
  reactivity towards legumain: no difference in reactivity towards legumain
Legumain [7]
  accumulation / selective uptake in tumor: rapidly accumulated in tumor tissues
  time after which specific legumain signal was reduced to background levels: 120 min
  time of maximum tumor signal to background ratio: around 90 min

## CCOC(=O)/C=C/C(=O)N(CC(N)=O)NC(=O)[C@@H]1CCCN1C(=O)CCCCCNC(=O)CCCCCN1/C(=C/C=C/C=C/C2=[N+](CC)c3ccc(S(=O)(=O)O)cc3C2(C)C)C(C)(C)c2cc(S(=O)(=O)O)ccc21 [LP-2]
Cathepsins [3]
  labeling of cathepsins: did not label any cathepsins at high concentrations
